The source of these data is PMC11475408, “All‐Inorganic Polyoxometalates Act as Superchaotropic Membrane Carriers” (Advanced Materials (Deerfield Beach, Fla.), 2023).

Several values for one entry are separate records, joined by “and”; a condition that tells them apart may be missing. Identical values can stand only once.

For data set [1], the system named is heptalysine. The data set is described as follows: ITC, POM into heptalysine. In kind it is binding. The following applies: 10 mM Tris, pH 7.4, value is Ka divided by 10^7. Here is the method: (§1) All experiments were performed with a VP‐ITC MicroCalorimeter from MicroCal, Int,. at atmospheric pressure and 298.15 K. Solutions were degassed and thermostatic prior to the titration experiments in a ThermoVac accessory. A constant volume of POM ([PVW11]^4‒ or [SiMoW11]^4‒) (10 µL per injection) was injected into the oligopeptide solution (heptaArg, protamine, polyArg or heptaLys) in 10 mM Tris, pH 7.4 to determine the apparent binding affinity of [PVW11]^4‒ and [SiMoW11]^4‒ with the oligopeptides. Dilution heats were determined by titration of the POM into buffer and subtracted from the reaction heat. The neat reaction heat was fitted with Origin 7.0 software by using the “one‐set‐of‐sites” model to obtain the complex stability constant (K a) and molar reaction enthalpy (∆H°). The free energy (∆G°) and entropy changes (∆S°) were obtained according to the relation: ∆G° = −RTlnK a = ∆H°−T∆S°.
(§2) Figure S11. Microcalorimetric titrations in 10 mM Tris, pH 7.4: Raw ITC data (top) for the sequential injections of POM solution into a heptalysine solution, and apparent reaction heats (bottom) obtained from the integration of the calorimetric traces. POM/heptalysine concentrations in µM: a, 200/8 and b, 150/10. Error data is 5% for the n values and ± 0.5 kcal mol‒1 for ΔH and TΔS (duplicate […]
Table S6. […]

Data set [2] relates to heptaarginine. Kind of data set: ITC, POM into heptaarginine. In kind it is binding. The following applies: 10 mM Tris; for Ka/ 107, heptaarginine: pH 7.4, 298.15 K, value is Ka divided by 10^7, duplicates; for Ka, heptaarginine (Figure 2c,d): pH 7.4, POM/oligoarginine 100/8 and 200/10 µM. Here is the method:
as §1
(§3) 4. Supramolecular interactions
(§4) Figure S10. Microcalorimetric titrations in 10 mM Tris, pH 7.4: Raw ITC data (top) for the sequential injections of POM solution into an oligoarginine solution, and apparent reaction heats (bottom) obtained from the integration of the calorimetric traces. […]
(§5) values and ± 0.5 kcal mol‒1 for ΔH and TΔS (duplicate measurements). Note that none of these interactions lead to any precipitation or aggregates, confirmed by the absence of any detectable signal by DLS. […]
as §2
Table S6. Binding constants (Ka in M‒1) and thermodinamic data (in kcal mol‒1) measured for the complex formation between the stable and active POMs and oligoarginines in 10 mM Tris, pH 7.4. a) […]
a) Error data is 5% for the n values and ± 0.5 kcal mol‒1 for ΔH and TΔS (duplicate measurements).
Background: Isothermal titration calorimetry measures the heat released or taken up as one component is titrated into another.

Data set [3] deals with protamine. The data set is described as follows: ITC, POM into protamine. The class given is binding. As to conditions: 10 mM Tris, pH 7.4, value is Ka divided by 10^7. On the procedure:
as §1, §3, §4, §5

Data set [4] can be described thus: Stability of POMs in nutrient mixture F-12 Ham by NMR. In kind it is physicochemical. On the procedure: To better mimic biological membranes, which contain negatively charged components and cholesterol, equivalent transport experiments were performed in anionic liposomes^[ [19], [20] ^] with the prototypal POM carriers, [PVW11]^4‒ and [SiMoW11]^4‒ . […] This encouraged us to transfer the experiments to CHO‐K1 (Chinese hamster ovary) cells, after we had confirmed sufficient stability of the most promising POM carriers, [PVW11]^4‒ and [SiMoW11]^4‒ , in the cellular nutrient mixture (F‐12 Ham's medium, Figures S26–S28C, Supporting Information).
Table S9. Results of stability investigation by NMR spectroscopy.
11 product, presumably [SiIVWVI12O40]4–) […]
product, presumably [SiIVWVI12O40]4–)
[AlW ]5‒ freshly prepared
[GeAlW ]5‒ freshly prepared […]
prepared ‒13.7; ‒14.7 intermediate anions
Stability of [PVW11]4‒ in 10 mM Mes buffer pH 5.5: 31P NMR studies were firstly performed on 3 mM solutions of [α-PVVVWVI11O40]4‒ in 10 mM Mes buffer pH 5.5 (Figure S25). The 31P NMR recorded immediately ([…]), one day (Figure S25B), and five days (Figure S25C) after solution preparation display the same signals that can be attributed to the intact [α-PVVVWVI11O40]4‒ (‒14.9 ppm) and the monolacunary [α-PVWVI11O40]7‒ (‒10.8 ppm) species formed upon partial hydrolysis. […]
Figure S24. 31P (A) and 51V (B) NMR spectra of 3 mM solutions of [PVW11]4‒ recorded in D2O. […]

In the case of “K4[α‐Si^IVMo^VIW^VI 11O40]·24H2O [[SiMoW11]^4‒]”, the “Ka/ 107, heptalysine” value in data set [1] was determined as 4.1 M‒1. Also, in data set [2], the “Ka/ 107, heptaarginine” value came to 0.6 M‒1 and the “Ka, heptaarginine (Figure 2c,d)” value is 6.3e+06 M⁻¹. In addition, in data set [3], the “Ka/ 107, protamine” value was found to be 1.7 M‒1. Moreover, in data set [4] (10 mM POM, F-12 Ham (final pH 5.7), 183W NMR signal intensities), the “% parent anion, F-12 Ham after 1 h at 37 °C (183W NMR)” value was 50% and ~ 50%.

For the substance “K4[α‐P^VV^VW^VI 11O40]·4H2O [[PVW11]^4‒]”, the “Ka/ 107, heptalysine” value in data set [1] stood at 2.8 M‒1. Further, in data set [2], the “Ka/ 107, heptaarginine” value is 5.7 M‒1 and the “Ka, heptaarginine (Figure 2c,d)” value was determined as 5.7e+07 M⁻¹. Also, in data set [3], the “Ka/ 107, protamine” value came out at 25 M‒1. For the same substance, in data set [4] (3 mM POM, F-12 Ham pH 7.4, 31P NMR integration), the “% parent anion, nutrient mixture F-12 Ham freshly prepared” value was found to be 43%.
